Source: US11771738B2 (Zoetis Services LLC, priority 2018, dated 2023)
Like-named read-outs stand apart in the source and are kept apart here.

Assays:
Format in all cases: cell-based
[1] = tested on: third stage larvae of Haemonchus contortus; test: Haemonchus contortus, Larvae Stage 3 (HcL3) In Vitro Assay; settings: Haemonchus contortus, 96 h
[2] = tested on: microfilariae of Dirofilaria immitis; test: Dirofilaria immitis, Microfilaria (DiMf) In Vitro Assay; settings: Dirofilaria immitis, 72 h, read-out: DiMf MED, Minimum Effective Dose, D. immitis microfilariae motility, in vitro
D. immitis L4 larvae = test: Dirofilaria immitis, L4 Stage (DiL4) In Vitro Assay; settings: for minimal effective concentration: Dirofilaria immitis, 72 h, read-out: DiL4 MED, Minimum Effective Dose, D. immitis L4 larvae motility, in vitro; for DiMf/DiL4: larval stage selectivity, ratio of DiMf MED to DiL4 MED
[3] = read-out: HcL3 MED, Haemonchus contortus third stage larvae in vitro, class mark appended to the Ex # in Table 3
[4] = read-out: HcL3 MED, Minimum Effective Dose, H. contortus third stage larvae, approximately 96 hours
[5] = read-out: HcL3 MED, approximately 96 hours incubation, multiple-resistant field isolate

Row | Compound | minimal effective concentration [1, 3] [µM] | minimal effective concentration [1, 4] [µM] | minimal effective concentration [1, 5] [µM] | minimal effective concentration [2] [µM] | minimal effective concentration (D. immitis L4 larvae) [µM] | DiMf/DiL4 (D. immitis L4 larvae)
1 | CC(C)C[C@H]1C(=O)O[C@H](Cc2ccc(Cc3cccs3)cc2)C(=O)N(C)[C@@H](CC(C)C)C(=O)O[C@H](C)C(=O)N(C)[C@@H](CC(C)C)C(=O)O[C@H](Cc2ccc(Cc3cccs3)cc2)C(=O)N(C)[C@@H](CC(C)C)C(=O)O[C@H](C)C(=O)N1C [Example 3-4, (3S,6R,9S,12R,15S,18R,21S,24R)-3,9,15,21-tetraisobutyl-4,6,10,16,18,22-hexamethyl-12,24-bis(4-(thiophen-2-ylmethyl)benzyl)-1,7,13,19-tetraoxa-4,10,16,22-tetraazacyclotetracosan-2,5,8,11,14,17,20,23-octaone] | < 1 | 0.5 | ≤ 1 | 0.02 | 0.0001 | 200
2 | CC(C)C[C@H]1C(=O)O[C@H](Cc2ccc(Cc3cccc(F)n3)cc2)C(=O)N(C)[C@@H](CC(C)C)C(=O)O[C@H](C)C(=O)N(C)[C@@H](CC(C)C)C(=O)O[C@H](Cc2ccc(Cc3cccc(F)n3)cc2)C(=O)N(C)[C@@H](CC(C)C)C(=O)O[C@H](C)C(=O)N1C [Example 3-313, (3S,6R,9S,12R,15S,18R,21S,24R)-6,18-bis(4-((6-fluoropyridin-2-yl)methyl)benzyl)-3,9,15,21-tetraisobutyl-4,10,12,16,22,24-hexamethyl-1,7,13,19-tetraoxa-4,10,16,22-tetraazacyclotetracosan-2,5,8,11,14,17,20,23-octaone] |  | 0.55 |  | 0.003 | 0.00055 | 5.5
3 | CC(C)C[C@H]1C(=O)O[C@H](Cc2ccc(Cc3cccnc3C(F)(F)F)cc2)C(=O)N(C)[C@@H](CC(C)C)C(=O)O[C@H](C)C(=O)N(C)[C@@H](CC(C)C)C(=O)O[C@H](Cc2ccc(Cc3cccnc3C(F)(F)F)cc2)C(=O)N(C)[C@@H](CC(C)C)C(=O)O[C@H](C)C(=O)N1C [Example 3-238, (3S,6R,9S,12R,15S,18R,21S,24R)-3,9,15,21-tetraisobutyl-4,6,10,16,18,22-hexamethyl-12,24-bis(4-((2-(trifluoromethyl)pyridin-3-yl)methyl)benzyl)-1,7,13,19-tetraoxa-4,10,16,22-tetraazacyclotetracosan-2,5,8,11,14,17,20,23-octaone] |  | > 5 |  | 0.002 | 0.0001 | 20
4 | COc1cc(C)c(Cc2ccc(C[C@H]3OC(=O)[C@H](CC(C)C)N(C)C(=O)[C@@H](C)OC(=O)[C@H](CC(C)C)N(C)C(=O)[C@@H](Cc4ccc(Cc5cnc(OC)cc5C)cc4)OC(=O)[C@H](CC(C)C)N(C)C(=O)[C@@H](C)OC(=O)[C@H](CC(C)C)N(C)C3=O)cc2)cn1 [Example 3-133, (3S,6R,9S,12R,15S,18R,21S,24R)-3,9,15,21-tetraisobutyl-6,18-bis(4-((6-methoxy-4-methylpyridin-3-yl)methyl)benzyl)-4,10,12,16,22,24-hexamethyl-1,7,13,19-tetraoxa-4,10,16,22-tetraazacyclotetracosan-2,5,8,11,14,17,20,23-octaone] |  | 57 |  | 0.02 | 0.0003 | 66.7
5 | COc1cccc(Cc2ccc(C[C@H]3OC(=O)[C@H](CC(C)C)N(C)C(=O)[C@@H](C)OC(=O)[C@H](CC(C)C)N(C)C(=O)[C@@H](Cc4ccc(Cc5cccc(OC)n5)cc4)OC(=O)[C@H](CC(C)C)N(C)C(=O)[C@@H](C)OC(=O)[C@H](CC(C)C)N(C)C3=O)cc2)n1 [Example 3-69, (3S,6R,9S,12R,15S,18R,21S,24R)-3,9,15,21-tetraisobutyl-6,18-bis(4-((6-methoxypyridin-2-yl)methyl)benzyl)-4,10,12,16,22,24-hexamethyl-1,7,13,19-tetraoxa-4,10,16,22-tetraazacyclotetracosan-2,5,8,11,14,17,20,23-octaone] | < 1 | 0.5 | ≤ 1 | 0.03 | 0.0007 | 42.9
6 | COc1cccc(Cc2ccc(C[C@H]3OC(=O)[C@H](CC(C)C)N(C)C(=O)[C@@H](C)OC(=O)[C@H](CC(C)C)N(C)C(=O)[C@@H](Cc4ccc(Cc5cccc(OC)c5)cc4)OC(=O)[C@H](CC(C)C)N(C)C(=O)[C@@H](C)OC(=O)[C@H](CC(C)C)N(C)C3=O)cc2)c1 [Example 1-5, (3S,6R,9S,12R,15S,18R,21S,24R)-3,9,15,21-tetraisobutyl-6,18-bis(4-(3-methoxybenzyl)benzyl)-4,10,12,16,22,24-hexamethyl-1,7,13,19-tetraoxa-4,10,16,22-tetraazacyclotetracosan-2,5,8,11,14,17,20,23-octaone] |  | > 100 |  | 0.5 | 0.001 | 500
7 | CC(C)C[C@H]1C(=O)O[C@H](Cc2ccc(Cc3snnc3C(C)C)cc2)C(=O)N(C)[C@@H](CC(C)C)C(=O)O[C@H](C)C(=O)N(C)[C@@H](CC(C)C)C(=O)O[C@H](Cc2ccc(Cc3snnc3C(C)C)cc2)C(=O)N(C)[C@@H](CC(C)C)C(=O)O[C@H](C)C(=O)N1C [Example 3-228, (3S,6R,9S,12R,15S,18R,21S,24R)-3,9,15,21-tetraisobutyl-6,18-bis(4-((4-isopropyl-1,2,3-thiadiazol-5-yl)methyl)benzyl)-4,10,12,16,22,24-hexamethyl-1,7,13,19-tetraoxa-4,10,16,22-tetraazacyclotetracosan-2,5,8,11,14,17,20,23-octaone] |  | > 100 |  | 0.01 | 0.0005 | 20
8 | Cc1nnsc1Cc1ccc(C[C@H]2OC(=O)[C@H](CC(C)C)N(C)C(=O)[C@@H](C)OC(=O)[C@H](CC(C)C)N(C)C(=O)[C@@H](Cc3ccc(Cc4snnc4C)cc3)OC(=O)[C@H](CC(C)C)N(C)C(=O)[C@@H](C)OC(=O)[C@H](CC(C)C)N(C)C2=O)cc1 [Example 3-120, (3S,6R,9S,12R,15S,18R,21S,24R)-3,9,15,21-tetraisobutyl-4,6,10,16,18,22-hexamethyl-12,24-bis(4-((4-methyl-1,2,3-thiadiazol-5-yl)methyl)benzyl)-1,7,13,19-tetraoxa-4,10,16,22-tetraazacyclotetracosan-2,5,8,11,14,17,20,23-octaone] | < 1 | 1 | ≤ 1 | 0.0004 | 0.0001 | 4
9 | CCn1nccc1Cc1ccc(C[C@H]2OC(=O)[C@H](CC(C)C)N(C)C(=O)[C@@H](C)OC(=O)[C@H](CC(C)C)N(C)C(=O)[C@@H](Cc3ccc(Cc4ccnn4CC)cc3)OC(=O)[C@H](CC(C)C)N(C)C(=O)[C@@H](C)OC(=O)[C@H](CC(C)C)N(C)C2=O)cc1 [Example 3-253, (3S,6R,9S,12R,15S,18R,21S,24R)-6,18-bis(4-((1-ethyl-1H-pyrazol-5-yl)methyl)benzyl)-3,9,15,21-tetraisobutyl-4,10,12,16,22,24-hexamethyl-1,7,13,19-tetraoxa-4,10,16,22-tetraazacyclotetracosan-2,5,8,11,14,17,20,23-octaone] | < 1 | 1 | ≤ 1 | 0.0003 | 0.001 | 0.3
10 | Cc1ccc(Cc2ccc(C[C@H]3OC(=O)[C@H](CC(C)C)N(C)C(=O)[C@@H](C)OC(=O)[C@H](CC(C)C)N(C)C(=O)[C@@H](Cc4ccc(Cc5ccc(C)nc5C)cc4)OC(=O)[C@H](CC(C)C)N(C)C(=O)[C@@H](C)OC(=O)[C@H](CC(C)C)N(C)C3=O)cc2)c(C)n1 [Example 3-240, (3S,6R,9S,12R,15S,18R,21S,24R)-6,18-bis(4-((2,6-dimethylpyridin-3-yl)methyl)benzyl)-3,9,15,21-tetraisobutyl-4,10,12,16,22,24-hexamethyl-1,7,13,19-tetraoxa-4,10,16,22-tetraazacyclotetracosan-2,5,8,11,14,17,20,23-octaone] |  | 5.7 |  | 0.02 | 0.001 | 20
11 | Cc1noc(C)c1Cc1ccc(C[C@H]2OC(=O)[C@H](CC(C)C)N(C)C(=O)[C@@H](C)OC(=O)[C@H](CC(C)C)N(C)C(=O)[C@@H](Cc3ccc(Cc4c(C)noc4C)cc3)OC(=O)[C@H](CC(C)C)N(C)C(=O)[C@@H](C)OC(=O)[C@H](CC(C)C)N(C)C2=O)cc1 [Example 3-21, (3S,6R,9S,12R,15S,18R,21S,24R)-6,18-bis(4-((3,5-dimethylisoxazol-4-yl)methyl)benzyl)-3,9,15,21-tetraisobutyl-4,10,12,16,22,24-hexamethyl-1,7,13,19-tetraoxa-4,10,16,22-tetraazacyclotetracosan-2,5,8,11,14,17,20,23-octaone] | < 1 | 0.3 | ≤ 1 | 0.0001 | < 3e-05 | >3.3
12 | CC(C)C[C@H]1C(=O)O[C@H](Cc2ccc(Cc3ccnc(F)c3F)cc2)C(=O)N(C)[C@@H](CC(C)C)C(=O)O[C@H](C)C(=O)N(C)[C@@H](CC(C)C)C(=O)O[C@H](Cc2ccc(Cc3ccnc(F)c3F)cc2)C(=O)N(C)[C@@H](CC(C)C)C(=O)O[C@H](C)C(=O)N1C [Example 3-326, (3S,6R,9S,12R,15S,18R,21S,24R)-6,18-bis(4-((2,3-difluoropyridin-4-yl)methyl)benzyl)-3,9,15,21-tetraisobutyl-4,10,12,16,22,24-hexamethyl-1,7,13,19-tetraoxa-4,10,16,22-tetraazacyclotetracosan-2,5,8,11,14,17,20,23-octaone] |  | 10 |  | 0.03 | 0.0003 | 100
